Measured values: BigSolDB 2.1

Nc1nnc[nH]1
solubility (mole fraction)
Conditions	in 1,4-dioxane	in 2-butanone	in NMP	in acetone	in acetonitrile	in ethanol	in ethyl acetate	in isopropanol	in methanol	in n-propanol
283.15 K	–	0.00169	0.145	0.00476	0.00061	0.0112	0.00147	0.00423	0.0306	0.0057
285.65 K	–	0.00191	0.152	0.00515	0.000713	0.0126	0.00168	0.00515	0.0329	0.007
288.15 K	0.00325	0.00214	0.159	0.00564	0.000871	0.0143	0.0019	0.00634	0.0353	0.00835
290.65 K	0.0037	0.00242	0.166	0.00617	0.00106	0.0165	0.00213	0.00755	0.038	0.00983
293.15 K	0.00404	0.00272	0.173	0.00672	0.00127	0.0187	0.00237	0.00912	0.0408	0.0116
295.65 K	0.00449	0.00306	0.181	0.00727	0.00153	0.0213	0.00263	0.0111	0.0437	0.0135
298.15 K	0.00506	0.00344	0.189	0.00793	0.00185	0.0239	0.00286	0.0135	0.0471	0.0162
300.65 K	0.00569	0.00386	0.198	0.00869	0.00224	0.0269	0.00313	0.0161	0.0501	0.0189
303.15 K	0.0064	0.00438	0.206	0.0095	0.00273	0.0302	0.00345	0.0191	0.0537	0.022
305.65 K	0.00708	0.00497	0.215	0.0104	0.00327	0.0338	0.00383	0.0217	0.0574	0.0255
308.15 K	0.00785	0.0056	0.225	0.0114	0.00384	0.0378	0.00421	0.0259	0.0613	0.0293
310.65 K	0.00865	0.00626	0.234	0.0123	0.00453	0.042	0.00458	0.0304	0.0654	0.0339
313.15 K	0.00952	0.00698	0.244	0.0133	0.00528	0.0469	0.00503	0.035	0.0701	0.0388
315.65 K	0.0103	0.00768	0.255	0.0142	0.00614	0.0516	0.00549	0.0398	0.0745	0.0448
318.15 K	0.0114	0.00844	0.267	0.0152	0.00698	0.0569	0.00602	0.0453	0.0794	0.0512
